Ends that are not written are not given here.
What was measured:
[1] = test system: antibodies in sera from HCV-seropositive donors; experiment: ELISA with HCV antibody-positive sera (biotinylated peptides on streptavidin- or avidin-coated plates, unbiotinylated peptides coated directly); assay type: binding, human; details: for PEPTIDE ELISA (O.D.): Table 12, biotinylated 20-mers
Method in brief: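 Read-out is OD at 450 nm after HRP goat anti-human Ig and TMB development, following 1 h at 37° C. with seropositive or negative sera diluted 1:100 (or 20-fold). Antigen was either unbiotinylated peptide adsorbed on plastic (pH 9.6 carbonate, 2–5 or 3 μg/ml) or biotinylated peptide at 1 μg/ml captured on streptavidin-coated wells, with casein blocking.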

[2] = ELISA with seronegative / negative control sera (specificity); assay type: binding, human
Method in brief: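 Specificity readout is OD at 450 nm (HRP goat anti-human Ig, TMB/H2O2, sulfuric acid stop), with ≥0.250 counted positive. Seronegative donor sera (typically 1:100, 1 h, 37° C) were applied to casein-blocked wells coated with peptide directly or via streptavidin capture of biotinylated peptide.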

PQRKTKRNTNRRPQDVKFPG
optical density (450 nm) ([1]; Table 4C, serum 8241, 20-fold dilution): 0.545 | optical density (450 nm) ([1]; Table 4C, serum 8242, 20-fold dilution): 2.415 | optical density (450 nm) ([1]; Table 4C, serum 8243, 20-fold dilution): 2.306 | optical density (450 nm) ([1]; Table 4C, serum 8247, 20-fold dilution): 1.975 | optical density (450 nm) ([1]; Table 4C, serum 8250, 20-fold dilution): 0.357 | optical density (450 nm) ([1]; Table 4C, serum 8271, 20-fold dilution): 1.284 | optical density (450 nm) ([1]; Table 4C, serum 8273, 20-fold dilution): 2.769 | optical density (450 nm) ([1]; Table 4C, serum 8274, 20-fold dilution): 2.943 | optical density (450 nm) ([1]; Table 4C, serum 8275, 20-fold dilution): 2.030 | optical density (450 nm) ([1]; Table 4C, serum 8276, 20-fold dilution): 2.348 | optical density (450 nm) ([1]; Table 4C, serum 8277, 20-fold dilution): 2.572 | optical density (450 nm) ([1]; Table 4C, serum 8278, 20-fold dilution): 2.022 | optical density (450 nm) ([1]; Table 5, sample 8242 (positive), peptide concentration 0.01 micrograms per milliliter, listed as HCV peptide II): 1.196 | optical density (450 nm) ([1]; Table 5, sample 8242 (positive), peptide concentration 0.03 micrograms per milliliter, listed as HCV peptide II): 1.481 | optical density (450 nm) ([1]; Table 5, sample 8242 (positive), peptide concentration 0.1 micrograms per milliliter, listed as HCV peptide II): 1.399 | optical density (450 nm) ([1]; Table 5, sample 8242 (positive), peptide concentration 0.3 micrograms per milliliter, listed as HCV peptide II): 1.365 | optical density (450 nm) ([1]; Table 5, sample 8242 (positive), peptide concentration 1.0 micrograms per milliliter, listed as HCV peptide II): 1.368 | optical density (450 nm) ([1]; Table 5, sample 8242 (positive), peptide concentration 3.0 micrograms per milliliter, listed as HCV peptide II): 1.427 | optical density (450 nm) ([1]; Table 5, sample 8243 (positive), peptide concentration 0.01 micrograms per milliliter, listed as HCV peptide II): 1.088 | optical density (450 nm) ([1]; Table 5, sample 8243 (positive), peptide concentration 0.03 micrograms per milliliter, listed as HCV peptide II): 1.597 | optical density (450 nm) ([1]; Table 5, sample 8243 (positive), peptide concentration 0.1 micrograms per milliliter, listed as HCV peptide II): 1.639 | optical density (450 nm) ([1]; Table 5, sample 8243 (positive), peptide concentration 0.3 micrograms per milliliter, listed as HCV peptide II): 1.608 | optical density (450 nm) ([1]; Table 5, sample 8243 (positive), peptide concentration 1.0 micrograms per milliliter, listed as HCV peptide II): 1.652 | optical density (450 nm) ([1]; Table 5, sample 8243 (positive), peptide concentration 3.0 micrograms per milliliter, listed as HCV peptide II): 1.668 | optical density (450 nm) ([1]; Table 5, sample 8318 (positive), peptide concentration 0.01 micrograms per milliliter, listed as HCV peptide II): 2.002 | optical density (450 nm) ([1]; Table 5, sample 8318 (positive), peptide concentration 0.03 micrograms per milliliter, listed as HCV peptide II): 2.181 | optical density (450 nm) ([1]; Table 5, sample 8318 (positive), peptide concentration 0.1 micrograms per milliliter, listed as HCV peptide II): 2.001 | optical density (450 nm) ([1]; Table 5, sample 8318 (positive), peptide concentration 0.3 micrograms per milliliter, listed as HCV peptide II): 1.958 | optical density (450 nm) ([1]; Table 5, sample 8318 (positive), peptide concentration 1.0 micrograms per milliliter, listed as HCV peptide II): 1.993 | optical density (450 nm) ([1]; Table 5, sample 8318 (positive), peptide concentration 3.0 micrograms per milliliter, listed as HCV peptide II): 2.016 | optical density (450 nm) ([1]; Table 5, sample 8320 (positive), peptide concentration 0.01 micrograms per milliliter, listed as HCV peptide II): 2.519 | optical density (450 nm) ([1]; Table 5, sample 8320 (positive), peptide concentration 0.03 micrograms per milliliter, listed as HCV peptide II): 2.757 | optical density (450 nm) ([1]; Table 5, sample 8320 (positive), peptide concentration 0.1 micrograms per milliliter, listed as HCV peptide II): 2.718 | optical density (450 nm) ([1]; Table 5, sample 8320 (positive), peptide concentration 0.3 micrograms per milliliter, listed as HCV peptide II): 2.684 | optical density (450 nm) ([1]; Table 5, sample 8320 (positive), peptide concentration 1.0 micrograms per milliliter, listed as HCV peptide II): 2.684 | optical density (450 nm) ([1]; Table 5, sample 8320 (positive), peptide concentration 3.0 micrograms per milliliter, listed as HCV peptide II): 2.718 | optical density (450 nm) ([1]; Table 8, serum 8243 (HCV), Avidin): 1.430 | optical density (450 nm) ([1]; Table 8, serum 8247 (HCV), Avidin): 1.356 | optical density (450 nm) ([1]; Table 8, serum 8248 (HCV), Avidin): 2.287 | optical density (450 nm) ([1]; Table 8, serum 8269 (HCV), Avidin): 1.213 | optical density (450 nm) ([1]; Table 8, serum 8273 (HCV), Avidin): 2.017 | optical density (450 nm) ([1]; Table 8, serum 8278 (HCV), Avidin): 1.878 | optical density (450 nm) ([1]; Table 8, serum 8285 (HCV), Avidin): 1.592 | optical density (450 nm) ([1]; Table 8, serum 8290 (HCV), Avidin): 0.060 | optical density (450 nm) ([1]; Table 8, serum 8291 (HCV), Avidin): 1.539 | PEPTIDE ELISA (O.D.) ([1]; serum 0843): 2.306 | PEPTIDE ELISA (O.D.) ([1]; serum 8240): 2.441 | PEPTIDE ELISA (O.D.) ([1]; serum 8241): 0.545 | PEPTIDE ELISA (O.D.) ([1]; serum 8242): 2.415 | PEPTIDE ELISA (O.D.) ([1]; serum 8332): 1.977 | PEPTIDE ELISA (O.D.) ([1]; serum 8339): 2.030 | PEPTIDE ELISA (O.D.) ([1]; serum 8350): 1.982 | PEPTIDE ELISA (O.D.) ([1]; serum 8377): 2.181 | PEPTIDE ELISA (O.D.) ([1]; serum 8378): 2.140 | PEPTIDE ELISA (O.D.) ([1]; serum 8388): 2.463 | optical density (450 nm) ([2]; Table 4C, negative serum): 0.070 | optical density (450 nm) ([2]; Table 5, sample 1747 (negative), peptide concentration 0.01 micrograms per milliliter, listed as HCV peptide II): 0.045 | optical density (450 nm) ([2]; Table 5, sample 1747 (negative), peptide concentration 0.03 micrograms per milliliter, listed as HCV peptide II): 0.045 | optical density (450 nm) ([2]; Table 5, sample 1747 (negative), peptide concentration 0.1 micrograms per milliliter, listed as HCV peptide II): 0.045 | optical density (450 nm) ([2]; Table 5, sample 1747 (negative), peptide concentration 0.3 micrograms per milliliter, listed as HCV peptide II): 0.046 | optical density (450 nm) ([2]; Table 5, sample 1747 (negative), peptide concentration 1.0 micrograms per milliliter, listed as HCV peptide II): 0.071 | optical density (450 nm) ([2]; Table 5, sample 1747 (negative), peptide concentration 3.0 micrograms per milliliter, listed as HCV peptide II): 0.064 | optical density (450 nm) ([2]; Table 5, sample 1781 (negative), peptide concentration 0.01 micrograms per milliliter, listed as HCV peptide II): 0.053 | optical density (450 nm) ([2]; Table 5, sample 1781 (negative), peptide concentration 0.03 micrograms per milliliter, listed as HCV peptide II): 0.049 | optical density (450 nm) ([2]; Table 5, sample 1781 (negative), peptide concentration 0.1 micrograms per milliliter, listed as HCV peptide II): 0.047 | optical density (450 nm) ([2]; Table 5, sample 1781 (negative), peptide concentration 0.3 micrograms per milliliter, listed as HCV peptide II): 0.051 | optical density (450 nm) ([2]; Table 5, sample 1781 (negative), peptide concentration 1.0 micrograms per milliliter, listed as HCV peptide II): 0.055 | optical density (450 nm) ([2]; Table 5, sample 1781 (negative), peptide concentration 3.0 micrograms per milliliter, listed as HCV peptide II): 0.057 | optical density (450 nm) ([2]; Table 8, serum 1782 (blood donor), Avidin): 0.057 | optical density (450 nm) ([2]; Table 8, serum 1784 (blood donor), Avidin): 0.045 | optical density (450 nm) ([2]; Table 8, serum 1785 (blood donor), Avidin): 0.045 | optical density (450 nm) ([2]; Table 8, serum 1794 (blood donor), Avidin): 0.153

Source: US6667387B1, “HCV core peptides” (priority 1992, dated 2003)
